Measured values from PMC12051037 (Chemistry (Weinheim an der Bergstrasse, Germany), 2024).
Entries after “also recorded” stand apart in the source; their conditions may differ.

Experiment: Stability of the aldehyde in solution
Assay type: physicochemical
Conditions: slowly converts into 1

With tumonolide aldehyde [compound 2] the stability was “not stable; also recorded: poor stability”.
